Test results published in patent US20180344690A1, “Methods and Formulation for Enhancing Response to Radiotherapy” (The Board of Trustees of the Leland Stanford Junior …, priority 2017, published 2018).
Like-named read-outs stand apart in the source and are kept apart here.

Experiments:
CD34+ stem cells [1] = conditions: cited from earlier work
AML [2] = conditions: cited from earlier work
CD34+ stem cells [3] = conditions: cited from earlier work; remark: listed apart in the source
[4] = system: chronic lymphocytic leukemia (CLL); conditions: cited from earlier work
CD34+ cells = conditions: cited from earlier work
[5] = system: peripheral blood (PB) CD34+ counts; conditions: cited from earlier work; for absolute CD34+ cell count (mean+/−SE): all patients
[6] = Preclinical animal toxicology studies; conditions: in vivo
[7] = cited from earlier work
MM = conditions: cited from earlier work
[8] = cited from earlier work; remark: listed apart in the source
CD34+ cell mobilization = conditions: cited from earlier work
AML [9] = conditions: cited from earlier work; remark: listed apart in the source
in vivo = conditions: human
glioblastoma = experiment: clinical
Source text: (§1) Patients underwent dynamic susceptibility contrast perfusion MRI (DSC-MRI) for quantification of relative cerebral blood volume (rCBV) values by region-of-interest analysis.

clinical = conditions: human, in vivo
Source text: as §1

[10] = cited from earlier work; remark: listed apart in the source
CML = conditions: cited from earlier work
APL = conditions: cited from earlier work
[11] = system: BCR-ABL(+) leukemia (CML); conditions: cited from earlier work
[12] = up to 320 μg/kg, healthy volunteers; cited from earlier work
[13] = cited from earlier work; remark: listed apart in the source
[14] = cells collected by Plerixafor plus G-CSF
[15] = 23 evaluable patients, with bortezomib

c1cc(CN2CCCNCCNCCCNCC2)ccc1CN1CCCNCCNCCCNCC1 [Plerixafor]
proportion of patients with NHL able to mobilize minimum (2×10^6 cells/kg) and target (5×10^6 cells/kg) CD34+ cells (CD34+ stem cells [1]; Plerixafor 240 μg/kg added to G-CSF): significantly increased the proportion of patients
apheresis days to reach both targets (CD34+ stem cells [1]; Plerixafor added to G-CSF): significantly fewer apheresis days
Plerixafor unrelated deaths (AML [2]; 4 patients, 240 μg/kg): 17%
complete response (CR) (AML [2]; 14 of 21 patients with available data): 67%
DLTs (AML [2]; 240, 320, 400, 480 μg/kg IV): No DLTs have been reported
patients with adverse events at least possibly related to Plerixafor (AML [2]; Eighteen patients): 86%
patients with Grade 3 Plerixafor-related AEs (AML [2]; Four patients): 19%
patients with Grade 4 related AEs (AML [2]; One patient, 480 μg/kg cohort, thrombocytopenia and asymptomatic pulmonary embolism): 5%
time of peak PB AML blasts (AML [2]; day 2, after administration): 2 to 4 h
increase in PB AML blasts, mean (AML [2]; day 7): 1.51 fold
median time to neutrophil (0.5×109/L) recovery for responders (AML [2]; in vivo): 19.5 (range 13-35) days
median time to platelet (100×109/L) recovery for responders (AML [2]; in vivo): 21 (range 17-37) days
rise in PB AML blasts, mean increase (AML [2]; infusion on day 2): 3.01 fold
severity of the majority of related adverse events (AML [2]; mainly gastrointestinal disorders): grade ½
proportion of patients with MM able to mobilize the target (6×10^6 cells/kg) CD34+ cells (CD34+ stem cells [3]; Plerixafor 240 μg/kg added to G-CSF compared with G-CSF alone): significantly increased the proportion of patients
apheresis days to reach target (CD34+ stem cells [3]; Plerixafor added to G-CSF): significantly fewer apheresis days
mobilization of CLL cells ([4]; 80, 160, 240, 320 μg/kg, preliminary results): mobilized to the peripheral blood in a dose-dependent fashion
tolerability of the combination of Plerixafor and rituximab ([4]; CLL patients with WBC <50×109/L): well tolerated
dose limiting toxicities ([4]; with rituximab): no dose limiting toxicities were reported
most common adverse events ([4]; with rituximab): nausea, fatigue, chills, and diarrhea
remissions ([4]; with rituximab): partial remissions were seen in a proportion of patients
patients achieving ≥5×10^6 CD34+ cells/kg (CD34+ cells; Plerixafor plus G-CSF compared to G-CSF alone): More patients
CD34+ cells mobilized in patients who mobilized poorly with G-CSF alone (CD34+ cells; Plerixafor plus G-CSF, nine patients, all patients): > 2×10^6 CD34+ cells/kg
median day of platelet engraftment (CD34+ cells; [14]): 17 days
median day of polymorphonuclear leukocyte (PMN) engraftment (CD34+ cells; [14]): 10 days
drug-related serious or unexpected adverse effects (CD34+ cells; human, in vivo): no drug-related serious adverse effects or unexpected adverse effects
circulating neutrophils (days 4, 8, 15, 22, 29 during infusion vs Screening (FIG. 8A)): increase of neutrophils
circulating monocytes (days 4, 8, 15, 22, 29 during infusion vs Screening (FIG. 8B)): increase in monocytes
total white blood cell (WBC) and peripheral blood (PB) CD34+ counts ([5]; 4 and 6 hours following a single injection): rapid and statistically significant increase
absolute CD34+ cell count (mean+/−SE) ([5]; 4 hours after injection, baseline 2.6+/−0.7/μL, P=0.002): 15.6 ± 3.9 µL⁻¹
absolute CD34+ cell count ([5]; 4 hours, 160 μg/kg group): 11.3 ± 2.7 µL⁻¹
absolute CD34+ cell count ([5]; 4 hours, 240 μg/kg group): 19.3 ± 6.9 µL⁻¹
absolute CD34+ cell count (mean+/−SE) ([5]; 6 hours after injection, P=0.003): 16.2 ± 4.3 µL⁻¹
absolute CD34+ cell count ([5]; 6 hours, 160 μg/kg group): 11.3 ± 2.5 µL⁻¹
absolute CD34+ cell count ([5]; 6 hours, 240 μg/kg group): 20.4 ± 7.6 µL⁻¹
toxicities ([5]; single injection 160 or 240 μg/kg): only grade 1 toxicities were observed
approximate human equivalent dose of early adverse neurologic effects [6]: 470-940 μg/kg
median terminal half-life ([7]; 240 μg/kg SC with G-CSF): 4.6 h
time of peak plasma concentrations ([7]; 240 μg/kg SC with G-CSF, in most patients): 0.5 h
time of maximum fold increase in circulating cells ([7]; after Plerixafor injection, all patients): approximately 10 hours
median maximum increase in the number of circulating cells from baseline ([7]; range, 3.0- to 5.5-fold): 4.2 fold
MR (MM; [15]): 13%
complete response (CR) (MM; [15]): 4%
overall response rate (including MR) (MM; [15]): 22%
progressive disease (PD) as best response (MM; [15]): 13%
very good partial response (VGPR) (MM; [15]): 4%
Dose limiting toxicities including insomnia, restlessness, and psychosis (MM; dose level 6 (Plerixafor 400 μg/kg and bortezomib 1.3 mg/m^2)): observed in two patients
de-adhesion of MM cells and accessory cells (MM; in vivo): transient de-adhesion of MM cells and accessory cells in vivo in most of the patients
Grade 3 anemia (MM; with bortezomib): 10%
Grade 3 bone fracture due to myeloma bone disease (MM; with bortezomib): 10%
Grade 3 hypercalcemia (MM; with bortezomib): 10%
Grade 3 hyponatremia (MM; with bortezomib): 10%
Grade 3 hypophosphatemia (MM; with bortezomib): 20%
Grade 3 lymphopenia (MM; with bortezomib): 40%
grade 4 toxicities (MM; with bortezomib): no grade 4 toxicities
tolerability of the combination (MM; with bortezomib): well tolerated
Cmax and AUC0-∞ across the four dose levels ([8]; 10, 20, 40, 80 μg/kg): dose proportionality
Cmax ([8]; IV, 40 μg/kg): 292.8±67.0
Cmax ([8]; IV, 80 μg/kg): 503.9±29.6
Cmax ([8]; SC, 40 μg/kg): 123.5±27.9
Cmax ([8]; SC, 80 μg/kg): 238.3±17.3
terminal elimination half-life ([8]; following a single dose, bi-exponential elimination from plasma): 3.5 to 5 h
time of peak plasma levels ([8]; following subcutaneous administration): 0.5 to 1 h
bioavailability ([8]; human, in vivo): 80-90%
most frequently reported adverse effects (CD34+ cell mobilization; human, in vivo): injection site reactions, gastrointestinal (GI) effects, paresthesias, and headaches
augmentation of CD34+ cell mobilization by G-CSF (CD34+ cell mobilization; on average): 3.8 fold
safety and tolerability (CD34+ cell mobilization; single SC dose 160 or 240 μg/kg alone or added to G-CSF): generally safe and well-tolerated
early death due to complications from infection (AML [9]; 2 patients): 6%
treatment failure due to persistent disease (AML [9]; 14 patients): 44%
complete remission (CR+CRi) (AML [9]; 32 evaluable patients at 240 μg/kg, historical CR rates 25-35%): 50%
platelet recovery (plt >50 k/mm3), median (AML [9]; Plerixafor + MEC, range 20-40 d): 26 days
neutrophil recovery (ANC >500/mm3), median (AML [9]; Plerixafor + MEC, range 21-37): 27 days
time of peak AML blast mobilization (AML [9]; after administration): 6 to 8 h
One year KM estimate of overall survival (AML [9]; in vivo): 56%
common grade 3 adverse events (AML [9]; in vivo): cytopenias and infections
hyperleukocytosis (AML [9]; in vivo): No evidence of hyperleukocytosis
mobilization of AML blasts into the peripheral circulation, mean increase (AML [9]; range 0.9-7.3 fold): 2.5 fold
MTD (in vivo): ~1.8 mg/kg
rCBV in the tumor bed compared to the postoperative pre-RT scan (glioblastoma; DSC-MRI at 1 and 6 months post-RT, P<0.02, one way ANOVA): lower rCBV
patients alive (glioblastoma; currently): 7 of 9
dose limiting toxicities (DLTs) (glioblastoma; human, in vivo): no DLTs observed
longest survival since diagnosis (glioblastoma; human, in vivo): 18 months
recommended phase II dose (glioblastoma; human, in vivo, iv, 4 weeks): 16.6 µg/kg/h
concentration at 7 days (clinical): ≥ 100 ng/mL
Sinus tachycardia (all Grade 1) ([10]; 400 and 480 μg/kg doses): observed in most subjects
maximum tolerated dose ([10]; doses of up to 480 μg/kg SC and IV in healthy volunteers and cancer patients): has not been established
common adverse events ([10]; doses up to 480 μg/kg): diarrhea, injection site erythema, perioral numbness, sinus tachycardia, headache, nausea, abdominal distention and injection site pain
leukemia burden in mice (CML; added to nilotinib, vs nilotinib alone): significantly reduced
mobilization of leukemic cells (CML; in vivo): mobilize leukemic cells in vivo
anti-tumor effect of Plerixafor alone (APL; in these experiments (leukemia models)): no detectable anti-tumor effect
median overall survival (APL; untreated control 18 days, cytarabine vs cytarabine+Plerixafor p<0.0006): 19 days
sensitivity to the tyrosine kinase inhibitors Imatinib and Nilotinib [11]: confer added sensitivity
tumor cell chemotaxis [11]: inhibit tumor cell chemotaxis
pharmacokinetics over the tested dose range [12]: linear pharmacokinetics
blood flow to a tumor (U251 human GBM cells; after 40 days, radiotherapy and Plerixafor compared to radiotherapy alone (FIG. 5A)): lower blood flow
tumor size (U251 human GBM cells; over 80 days, radiation and Plerixafor (continuous infusion) compared to other treatment groups (FIG. 5B, 5C)): reduced tumor size
adverse events that occurred more frequently with Plerixafor than placebo ([13]; G-CSF plus Plerixafor 240 μg/kg SC): insomnia, headache, dizziness, diarrhea, nausea, flatulence, abdominal pain, vomiting, abdominal distention, dry mouth, stomach discomfort, constipation, dyspepsia, hypoaesthesia oral, arthralgia, musculoskeletal pain, hyperhidrosis, erythema, injection site reactions, fatigue, and malaise
tolerability ([13]; Plerixafor 240 μg/kg in conjunction with G-CSF, NHL or MM): well-tolerated
PMN and PLT engraftment of mobilized hematopoietic stem cells ([13]; Plerixafor and G-CSF compared to G-CSF alone, both trials): equally capable of prompt and durable PMN and PLT engraftment
